Measured values from US6673968B1, “Method of producing n-(4,5-bis-methanesulfonyl-2-methyl-benzoyl)-guanidine, the hydrochloride thereof” (Merck Patent Gesellschaft mit beschränkter Haftung, priority 1999, dated 2004).
“And” between values parts separate entries of the source, which are not always exact repeats. Identical values can stand only once.

Columns and labels:
Format in all cases: in vivo
[1] = bioavailability after oral administration (AUCpo/AUCiv), monkeys; conditions: 2 monkeys (individual values); oral vs intravenous, dose-standardised AUCpo/AUCiv; hydrochloride hydrate
Text: (§1) The absorption from the digestive tract after oral administration can be calculated by comparison of the concentrations of the administered active ingredient determined in the blood plasma after oral and intravenous administration (dose-standardised AUCpo/AUCiv) [AUC=area under the curve]. […] Bioavailabilities of the hydrochloride hydrate of from 88% to 99% were found in dogs, and 75% and 96% in 2 monkeys. Since the absorption rate is at least equal to or greater than the bioavailability determined, very good absorption has thus also been found in these animal species.

[2] = absorption from the digestive tract after oral administration (AUCpo/AUCiv), rat; conditions: of the orally administered radioactively labelled substance
Text: as §1

[3] = bioavailability after oral administration (AUCpo/AUCiv), dogs; conditions: dog, plasma, oral vs intravenous, dose-standardised AUCpo/AUCiv, read-out: Bioavailabilities
Text: as §1

Cc1cc(S(C)(=O)=O)c(S(C)(=O)=O)cc1C(=O)NC(=N)N.Cl.O [hydrochloride hydrate, N-(4,5-bismethanesulfonyl-2-methylbenzoyl)guanidine, hydrochloride hydrate]
Bioavailabilities [1]: 75% and 96% | absorption rate [2]: 98% | bioavailability [3]: 88 to 99%
